Test results from patent US9365522B2, “Pyrazole amide derivative” (AMGEN INC., priority 2015, dated 2016).

Biological target: T1, ligand binding domain of human ROR gamma (Homo sapiens, UniProt P51449)
T1 construct: NM_001001523; expressed in transfected cells; host or cells: HEK293T
T1 sequence (P51449 247-497 isoform P51449-2): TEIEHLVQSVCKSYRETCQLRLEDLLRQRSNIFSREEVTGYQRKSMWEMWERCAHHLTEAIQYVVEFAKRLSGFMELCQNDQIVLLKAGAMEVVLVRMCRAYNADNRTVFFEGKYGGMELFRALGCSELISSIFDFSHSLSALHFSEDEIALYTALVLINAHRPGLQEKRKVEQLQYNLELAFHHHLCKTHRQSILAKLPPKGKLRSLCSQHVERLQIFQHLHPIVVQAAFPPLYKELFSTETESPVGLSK
Experiment: ROR gamma reporter gene assay (GAL4-RORγ LBD luciferase, Dual-Glo)
Format: cell-based
Conditions: HEK293T cells transfected with pM-ROR gamma, 8 concentrations 3.5 nM to 10.5 μM, 24 h incubation; read-out: result (pIC50, inhibition of RORγ transcriptional activity) (converted)
In short: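 Inhibition of RORγ-driven transcription was measured in HEK293T cells expressing a GAL4 fusion of the human RORγ LBD (aa 247-497), with renilla luciferase as internal control. Cells in 10% charcoal-stripped serum received compound (3.5 nM–10.5 μM) for 24 h.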

Compound	IC50
N[C@]1(C(=O)O)CC[C@H](n2ncc(C(=O)N(CC(=O)c3c(Cl)cncc3Cl)Cc3ccc(F)cc3)c2C(F)(F)F)CC1 [Example 117, cis-4-(4-((2-(3,5-dichloropyridin-4-yl)-2-oxoethyl)-((4-fluorophenyl)methyl)carbamoyl)-5-(trifluoromethyl)pyrazol-1-yl)-1-aminocyclohexane-1-carboxylic acid]	3.55e+06 pM
CC(C)(CN(Cc1cc(F)cc(F)c1)C(=O)c1cnn([C@H]2CC[C@H](C(=O)O)CC2)c1C(F)(F)F)c1c(Cl)cccc1Cl [Example 118, trans-4-(4-((2-(2,6-dichlorophenyl)-2-methylpropyl)-((3,5-difluorophenyl)methyl)carbamoyl)-5-(trifluoromethyl)pyrazol-1-yl)cyclohexane-1-carboxylic acid]	1.74e+06 pM
COc1cncc(OC)c1C(=O)CN(Cc1cc(F)cc(F)c1)C(=O)c1cnn([C@H]2CC[C@H](C(=O)O)CC2)c1C(F)(F)F [Example 119, trans-4-(4-((3,5-difluorophenyl)methyl-(2-(3,5-dimethoxypyridin-4-yl)-2-oxoethyl)carbamoyl)-5-(trifluoromethyl)pyrazol-1-yl)cyclohexane-1-carboxylic acid]	1.51e+06 pM
O=C(CN(CC1CCCCN1)C(=O)c1cnn([C@H]2CC[C@H](C(=O)O)CC2)c1C(F)(F)F)c1c(Cl)cncc1Cl (stereo partly drawn) [Example 121, trans-4-(4-((2-(3,5-dichloropyridin-4-yl)-2-oxoethyl)-(piperidin-2-ylmethyl)carbamoyl)-5-(trifluoromethyl)pyrazol-1-yl)cyclohexane-1-carboxylic acid]	> 1e+07 pM
Cc1cc(=O)[nH]c(C)c1C(=O)CN(Cc1cc(F)cc(F)c1)C(=O)c1cnn([C@H]2CC[C@H](C(=O)O)CC2)c1C(F)(F)F [Example 122, trans-4-(4-((3,5-difluorophenyl)methyl-(2-(2,4-dimethyl-6-oxo-1H-pyridin-3-yl)-2-oxoethyl)carbamoyl)-5-(trifluoromethyl)pyrazol-1-yl)cyclohexane-1-carboxylic acid]	> 1e+07 pM
O=C(CN(CC12CC3CC(CC(C3)C1)C2)C(=O)c1cnn([C@H]2CC[C@H](C(=O)O)CC2)c1C(F)(F)F)c1c(Cl)cncc1Cl [Example 123, trans-4-(4-(1-adamantylmethyl-(2-(3,5-dichloropyridin-4-yl)-2-oxoethyl)carbamoyl)-5-(trifluoromethyl)pyrazol-1-yl)cyclohexane-1-carboxylic acid]	4900 pM
CC(C)(C)[C@H]1C[C@H](CN(CC(=O)c2c(Cl)cncc2Cl)C(=O)c2cnn([C@H]3CC[C@H](C(=O)O)CC3)c2C(F)(F)F)C1 [Example 125, trans-4-(4-((3-tert-butylcyclobutyl)methyl-(2-(3,5-dichloropyridin-4-yl)-2-oxoethyl)carbamoyl)-5-(trifluoromethyl)pyrazol-1-yl)cyclohexane-1-carboxylic acid]	324000 pM
CC(C)(C)[C@H]1C[C@@H](CN(CC(=O)c2c(Cl)cncc2Cl)C(=O)c2cnn([C@H]3CC[C@H](C(=O)O)CC3)c2C(F)(F)F)C1 [Example 126, trans-4-(4-((3-tert-butylcyclobutyl)methyl-(2-(3,5-dichloropyridin-4-yl)-2-oxoethyl)carbamoyl)-5-(trifluoromethyl)pyrazol-1-yl)cyclohexane-1-carboxylic acid]	912000 pM
O=C(CN(Cc1cc(F)cc(F)c1)C(=O)c1cnn([C@H]2CC[C@H](C(=O)O)CC2)c1C(F)(F)F)c1c(Cl)cc(OC(F)(F)F)cc1Cl [Example 127, trans-4-(4-((2-(2,6-dichloro-4-(trifluoromethoxy)phenyl)-2-oxoethyl)-((3,5-difluorophenyl)methyl)carbamoyl)-5-(trifluoromethyl)pyrazol-1-yl)cyclohexane-1-carboxylic acid]	2.04e+06 pM
N#C[C@]1(C(=O)O)CC[C@@H](n2ncc(C(=O)N(CC(=O)c3c(Cl)cncc3Cl)Cc3ccc(F)cc3)c2C(F)(F)F)CC1 [Example 128, trans-4-(4-((2-(3,5-dichloropyridin-4-yl)-2-oxoethyl)-((4-fluorophenyl)methyl)carbamoyl)-5-(trifluoromethyl)pyrazol-1-yl)-1-cyanocyclohexane-1-carboxylic acid]	> 1e+07 pM
N#C[C@]1(C(=O)O)CC[C@H](n2ncc(C(=O)N(CC(=O)c3c(Cl)cncc3Cl)Cc3ccc(F)cc3)c2C(F)(F)F)CC1 [Example 129, trans-4-(4-((2-(3,5-dichloropyridin-4-yl)-2-oxoethyl)-((4-fluorophenyl)methyl)carbamoyl)-5-(trifluoromethyl)pyrazol-1-yl)-1-cyanocyclohexane-1-carboxylic acid]	8.71e+06 pM

More lines, now with the values ahead:

IC50	Compound
174000 pM	CC1(C)CCC(CN(CC(=O)c2c(Cl)cncc2Cl)C(=O)c2cnn([C@H]3CC[C@H](C(=O)O)CC3)c2C(F)(F)F)CO1 (some centres unmarked) [Example 130]
83200 pM	CC(C)(C)[C@H]1C[C@@H](N(CC(=O)c2c(Cl)cncc2Cl)C(=O)c2cnn([C@H]3CC[C@H](C(=O)O)CC3)c2C(F)(F)F)C1 [Example 131, trans-4-(4-((3-tert-butylcyclobutyl)-(2-(3,5-dichloropyridin-4-yl)-2-oxoethyl)carbamoyl)-5-(trifluoromethyl)pyrazol-1-yl)cyclohexane-1-carboxylic acid]
66100 pM	CC(C)(C)[C@H]1C[C@H](N(CC(=O)c2c(Cl)cncc2Cl)C(=O)c2cnn([C@H]3CC[C@H](C(=O)O)CC3)c2C(F)(F)F)C1 [Example 132, trans-4-(4-((3-tert-butylcyclobutyl)-(2-(3,5-dichloropyridin-4-yl)-2-oxoethyl)carbamoyl)-5-(trifluoromethyl)pyrazol-1-yl)cyclohexane-1-carboxylic acid]
245000 pM	Cc1ccnc(C)c1C(=O)CN(Cc1cc(F)cc(F)c1)C(=O)c1cnn([C@H]2CC[C@H](C(=O)O)CC2)c1C(F)(F)F [Example 134, trans-4-(4-((3,5-difiuorophenyl)methyl-(2-(2,4-dimethylpyridin-3-yl)-2-oxoethyl)carbamoyl)-5-(trifluoromethyl)pyrazol-1-yl)cyclohexane-1-carboxylic acid]
3.09e+06 pM	O=C(CN(Cc1cc(F)cc(F)c1)C(=O)c1cnn([C@H]2CC[C@H](C(=O)O)CC2)c1Cl)c1c(Cl)cncc1Cl [Example 135, trans-4-(5-chloro-4-((2-(3,5-dichloropyridin-4-yl)-2-oxoethyl)-((3,5-difluorophenyl)methyl)carbamoyl)pyrazol-1-yl)cyclohexane-1-carboxylic acid]
83200 pM	O=C(CN(Cc1cc(F)cc(F)c1)C(=O)c1cnn([C@H]2CC[C@H](C(=O)O)CC2)c1C(F)(F)F)c1ccc(C(F)(F)F)cc1Cl [Example 136, trans-4-(4-((2-(2-chloro-4-(trifluoromethyl)phenyl)-2-oxoethyl)-((3,5-difluorophenyl)methyl)carbamoyl)-5-(trifluoromethyl)pyrazol-1-yl)cyclohexane-1-carboxylic acid]
4790 pM	Cc1cc(Cl)c(C(=O)CN(Cc2cc(F)cc(F)c2)C(=O)c2cnn([C@H]3CC[C@H](C(=O)O)CC3)c2C(F)(F)F)c(Cl)c1 [Example 137, trans-4-(4-((2-(2,6-dichloro-4-methylphenyl)-2-oxoethyl)-((3,5-difluorophenyl)methyl)carbamoyl)-5-(trifluoromethyl)pyrazol-1-yl)cyclohexane-1-carboxylic acid]
7240 pM	C[C@]1(C(=O)O)CC[C@H](n2ncc(C(=O)N(Cc3cc(F)cc(F)c3)C[C@H](F)c3c(Cl)cccc3Cl)c2C(F)(F)F)CC1 [Example 138, trans-4-(4-(((2R)-2-(2,6-dichlorophenyl)-2-fluoroethyl)-((3,5-difluorophenyl)methyl)carbamoyl)-5-(trifluoromethyl)pyrazol-1-yl)-1-methylcyclohexane-1-carboxylic acid]
17400 pM	C[C@]1(C(=O)O)CC[C@H](n2ncc(C(=O)N(Cc3cc(F)cc(F)c3)C[C@@H](F)c3c(Cl)cccc3Cl)c2C(F)(F)F)CC1 [Example 139, trans-4-(4-(((2S)-2-(2,6-dichlorophenyl)-2-fluoroethyl)-((3,5-difluorophenyl)methyl)carbamoyl)-5-(trifluoromethyl)pyrazol-1-yl)-1-methylcyclohexane-1-carboxylic acid]
200000 pM	CC(C)(C)CC1CC(CN(CC(=O)c2c(Cl)cncc2Cl)C(=O)c2cnn([C@H]3CC[C@H](C(=O)O)CC3)c2C(F)(F)F)C1 (stereo partly drawn) [Example 140, trans-4-(4-((2-(3,5-dichloropyridin-4-yl)-2-oxoethyl)-((3-(2,2-dimethylpropyl)cyclobutyl)methyl)carbamoyl)-5-(trifluoromethyl)pyrazol-1-yl)cyclohexane-1-carboxylic acid]
6.61e+06 pM	Nc1ccccc1C(=O)CN(Cc1cc(F)cc(F)c1)C(=O)c1cnn([C@H]2CC[C@H](C(=O)O)CC2)c1C(F)(F)F [Example 142, trans-4-(4-((2-(2-aminophenyl)-2-oxoethyl)-((3,5-difluorophenyl)methyl)carbamoyl)-5-(trifluoromethyl)pyrazol-1-yl)cyclohexane-1-carboxylic acid]
2.24e+06 pM	Cc1ccc(N)c(C(=O)CN(Cc2cc(F)cc(F)c2)C(=O)c2cnn([C@H]3CC[C@H](C(=O)O)CC3)c2C(F)(F)F)c1 [Example 143, trans-4-(4-((2-(2-amino-5-methylphenyl)-2-oxoethyl)-((3,5-difluorophenyl)methyl)carbamoyl)-5-(trifluoromethyl)pyrazol-1-yl)cyclohexane-1-carboxylic acid]
